# PMC12543283, “TastepepAI: An artificial intelligence platform for taste peptide de novo design” (PLOS Computational Biology, 2025)
# “And” between values parts separate entries of the source, which are not always exact repeats. Identical values can stand only once. Ends that are not written are not given here.
# Key:
# [1] = Electronic tongue analysis (Taste-Sensing System SA 402B); set-up: unit not given here; settings: reference solution 30 mM KCl + 0.3 mM tartaric acid as baseline, first measurement excluded; for Umami: sensor AAE; for Umami / Bitter / Sweet: detection threshold 0, room temperature; for Umami / Bitter / Sour / Salty: four replicates; for Sour: detection threshold -13, room temperature; for Salty: detection threshold -6, room temperature; for Sweet: measured five times
# Outline: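 Room-temperature electronic-tongue readings with five taste probes, calibrated against a reference of 30 mM KCl and 0.3 mM tartaric acid. Samples at 0.1 mg/mL and 1.0 mg/mL were measured four times, sweetness five times, and the first run was dropped. Detection cut-offs were sour −13, salty −6, others 0.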
# [2] = test system: human bronchial epithelial cells (BEAS-2B)
# Method: (§1) The cytotoxicity of 73 synthetic peptides was evaluated using four human cell lines: human pancreatic ductal epithelial cells (HPNE), human embryonic kidney cells (HEK293T), human umbilical vein endothelial cells (HUVEC), and human bronchial epithelial cells (BEAS-2B). When cell density reached 70% confluence, the complete culture medium was replaced with serum-free maintenance medium, and peptides were added at a final concentration of 100 μM for 36 h. Control groups received only serum-free maintenance medium without peptides. Cell proliferation was assessed using the CCK-8 assay kit (Solarbio, CA1210) according to the manufacturer’s instructions.
# [3] = test system: human embryonic kidney cells (HEK293T)
# [4] = test system: human pancreatic ductal epithelial cells (HPNE)
# [5] = test system: human umbilical vein endothelial cells (HUVEC)
# Method: as §1
Substance,Umami ([1]; peptide 0.1 mg/mL),Umami ([1]; peptide 1 mg/mL),"Bitter ([1]; sensor C00, peptide 0.1 mg/mL)","Bitter ([1]; sensor C00, peptide 1 mg/mL)","Sour ([1]; sensor CA0, peptide 0.1 mg/mL)","Sour ([1]; sensor CA0, peptide 1 mg/mL)","Salty ([1]; sensor CT0, peptide 0.1 mg/mL)","Salty ([1]; sensor CT0, peptide 1 mg/mL)","Sweet ([1]; sensor GL1, peptide 0.1 mg/mL)","Sweet ([1]; sensor GL1, peptide 1 mg/mL)","Average cell viability, BEAS-2B [2]","Cell viability, BEAS-2B, Data1 [2]","Cell viability, BEAS-2B, Data2 [2]","Cell viability, BEAS-2B, Data3 [2]","Average cell viability, HEK293T [3]","Cell viability, HEK293T, Data1 [3]","Cell viability, HEK293T, Data2 [3]","Cell viability, HEK293T, Data3 [3]","Average cell viability, HPNE [4]","Cell viability, HPNE, Data1 [4]",further results
IAVPHEP [TaPep47],2.32,-4.54,8.00,3.37,-4.89,10.97,-19.15,9.73,6.95,-5.60,106.38,109.97,99.00,110.17,100.09,104.67,100.41,95.21,99.80,107.02,"Cell viability, HPNE, Data2 [4]: 87.25; Cell viability, HPNE, Data3 [4]: 105.12; Average cell viability, HUVEC [5]: 101.12; Cell viability, HUVEC, Data1 [5]: 101.62; Cell viability, HUVEC, Data2 [5]: 112.48; Cell viability, HUVEC, Data3 [5]: 89.25"
IFGDD [TaPep57],1.71,-5.02,7.29,3.08,-3.54,12.57,-21.64,9.94,6.75,-7.93,100.86,99.70,103.89,99.00,99.72,100.22,96.06,102.87,103.13,83.76,"Cell viability, HPNE, Data2 [4]: 112.81; Cell viability, HPNE, Data3 [4]: 112.81; Average cell viability, HUVEC [5]: 100.24; Cell viability, HUVEC, Data1 [5]: 106.57; Cell viability, HUVEC, Data2 [5]: 103.38; Cell viability, HUVEC, Data3 [5]: 90.77"
ILEEQ [TaPep29],1.81,-4.08,7.69,3.20,-3.61,10.60,-20.79,9.53,7.74,-5.49,114.56,114.56,111.96,117.15,100.41,100.88,96.44,103.91,96.81,101.03,"Cell viability, HPNE, Data2 [4]: 96.44; Cell viability, HPNE, Data3 [4]: 92.95; Average cell viability, HUVEC [5]: 98.96; Cell viability, HUVEC, Data1 [5]: 93.24; Cell viability, HUVEC, Data2 [5]: 109.93; Cell viability, HUVEC, Data3 [5]: 93.72"
KADGNR [TaPep4],1.35,-5.17,7.74,1.90,-2.92,13.79,-16.43,17.52,4.21,-5.50,96.81,99.00,95.11,96.31,102.74,102.11,102.49,103.63,97.84,95.76,"Cell viability, HPNE, Data2 [4]: 97.39; Cell viability, HPNE, Data3 [4]: 100.36; Average cell viability, HUVEC [5]: 105.16; Cell viability, HUVEC, Data1 [5]: 113.12; Cell viability, HUVEC, Data2 [5]: 102.98; Cell viability, HUVEC, Data3 [5]: 99.39"
KGGEV [TaPep68],0.75,-4.79,7.39,3.94,-1.26,12.33,-15.75,12.33,3.06,-4.04,104.35,106.68,113.46,92.92,100.03,100.79,94.92,104.38,94.11,97.24,"Cell viability, HPNE, Data2 [4]: 99.23; Cell viability, HPNE, Data3 [4]: 85.86; Average cell viability, HUVEC [5]: 103.75; Cell viability, HUVEC, Data1 [5]: 103.54; Cell viability, HUVEC, Data2 [5]: 113.44; Cell viability, HUVEC, Data3 [5]: 94.28"
KGYEAV [TaPep5],1.93,-5.17,7.90,bitterness suppression and -0.10,-4.04,12.61,-18.14,14.26,6.12,-5.63,113.59,105.38,117.75,117.65,97.32,101.17,95.30,95.49,113.38,117.83,"Cell viability, HPNE, Data2 [4]: 109.17; Cell viability, HPNE, Data3 [4]: 113.13; Average cell viability, HUVEC [5]: 105.38; Cell viability, HUVEC, Data1 [5]: 115.43; Cell viability, HUVEC, Data2 [5]: 105.06; Cell viability, HUVEC, Data3 [5]: 95.64"
